The data set can be described thus: Solubility in ethanol and doping of iodo-SAIB into SAIB. Type of data set: physicochemical. The conditions noted are these: neat LOIB.

With `CC(C)C(=O)OC[C@H]1O[C@@H](O[C@H]2[C@H](OC(=O)C(C)C)[C@@H](OC(=O)C(C)C)C(OC(=O)C(C)C)O[C@@H]2COC(=O)C(C)C)[C@H](OC(=O)C(C)C)[C@@H](OC(=O)C(C)C)[C@H]1OC(=O)C(C)C` (stereo partly drawn) [LOIB, α,β Lactose Octaisobutyrate], the “solubility in anhydrous EtOH” value is reported as “readily dissolves”.

(Values after patent US11058780B2, “Palpable marker composition” (TECHNICAL UNIVERSITY OF DENMARK, priority 2016, dated 2021).)
